From patent US20060110456A1, “Method for biocidal and/or biostatic treatment and compositions therefor” (NATIONAL UNIVERSITY OF SINGAPORE, priority 2004, published 2006)
Entries after “also recorded” stand apart in the source; their conditions may differ. Counter-ions that a name gives are not always drawn.

Assays:
[1] = tested on: barnacle cyprids; assay: Cyprid settlement on plastic and glass substrata (IMD, ZPX); assay type: in vivo, Balanus amphitrite
Procedure: Assays were then carried out on plastic and glass substrata. […] The wells were then rinsed with clean water, and cyprids added in clean seawater.
A follow up experiment was carried out to examine the effect of ZPX on barnacle settlement when the experiment is carried out on different substrata. ZPX test solutions were prepared as described above from the tablet. The following test conditions were applied: • (1) Assay was carried out with ZPX test solutions in the 24 well tissue culture plates (as before); • (2) ZPX test solution at 25 ug ml^−1 were applied to the 24 well tissue culture plates and left in the well for 10 minutes. The solution is then discarded and the well was rinsed three times, each time with 2 ml of seawater. Clean seawater was added into each well. • (3) The assay with ZPX test solutions was carried out in glass scintillation bottles.
Cyprids were obtained and settlement experiments were carried out as described earlier. After 24 hours, the number of cyprids which had settled/attached was counted.

[2] = tested on: marine bacteria (ten strains); assay: Bacteriostatic vs bacteriocidal activity from growth assay: absorbance and CFU counts; assay type: cell-based, marine bacteria isolated from Singapore fouling communities; conditions: 50 μg ml^−1; for Growth assay: 24-hour change in absorbance for ten strains: strains 1, 4, 9, 14, 18, 20, 27, 28, 29, 30
Procedure: Bacteria strains (1, 4, 9, 14, 18, 20, 27, 28, 29, 30) representing a variety of morphological types were used.
For each well, […] of a 100 μg ml^−1 drug solution in sterile distilled water, was added to 45 μl of Marine Broth. Controls for growth consisted of 50 μl of sterile deionized water and 45 μl of marine broth. All wells used for growth studies were prepared in triplicate and inoculated with 5 μl of the bacterial suspension. Blanks consisting of the above volumes of pharmaceutical with Marine Broth and distilled water, were prepared in triplicate and inoculated with 5 μl of sterile seawater. Immediately after adding all the components to the wells for the growth studies, 10 μl was removed and used to inoculate plates of Marine Agar to determine colony-forming units (CFU). The absorbance (A600) of each well was read in the plate reader immediately.
The inoculated plates of Marine Agar were incubated overnight on a rotary shaker (150 rpm) at 30° C. inside a moistened airtight container. After incubation, the absorbance was read again and another 10 μl was removed and used to inoculate Marine Agar plates to determine CFU.
The difference in absorbance over 24 hours for each bacterial strain versus controls and treatments were plotted in FIGS. 3 to 6 for each of the four drugs. The data was analyzed using 1-tailed t-test.

[3] = tested on: bacterial biofilms (strains 9, 14, 20, 27 and 28); assay: Effect of ZPX and ZFN on adhesion and removal of biofilms; assay type: cell-based, marine bacteria isolated from Singapore fouling communities; conditions: NTC; for Effect on established bacterial biofilms: 25 ug ml^−1; for Biofilm present after treatment (added with bacteria or after biofilm established): 50 ug ml^−1
Procedure: The bacteria were grown, washed and their concentrations were adjusted as described above. The bacterial suspension (75 μl) of strains 9, 14, 20, 27 and 28 in SSW and 50 μl of SDI water were placed into 96 well polystyrene microplates (Falcon 351172). Blank wells were filled with 75 μl of SSW and 50 μl of SDI. Three wells were used for blanks, each control and treatment.
The cells were allowed to attach to the wells for 2 h. Afterwards, unattached bacteria and liquid in the wells were removed by aspiration and wells were washed with 200 μl of SSW twice using a microplate washer as described above. After washing, 75 μl of SSW were added and 50 μl of SDI to the control (bacterial suspension and SDI as above) and blank (75 μl of SSW and 50 μl of SDI) wells.
After 2 h, the wells were washed with SSW, washed twice with SDI and stained with crystal violet as described above. After 10 min, the stain was removed, wells were washed twice with SDI, and crystal violet was released from the attached bacteria by adding 200 μl of sodium desoxycholate. After 10 min, absorbance (A590) of each well was read using a plate reader (Tecan Sunrise, Switzerland). Comparisons were made between wells where attached bacteria were exposed to SDI and wells where they were exposed to the pharmaceuticals.

| SMILES | Change in CFU count after 24 hours ([2]; strain 1 (Rhodovulum)) | Inhibition of bacterial growth ([2]; strain 1 (Rhodovulum)) | Result (bacteriostatic / bacteriocidal / no effect) ([2]; strain 1 (Rhodovulum)) | Inhibition of bacterial growth ([2]; strain 4 (Bacillus)) | Result (bacteriostatic / bacteriocidal / no effect) ([2]; strain 4 (Bacillus)) | Inhibition of bacterial growth ([2]; strain 9 (Bacillus)) | Result (bacteriostatic / bacteriocidal / no effect) ([2]; strain 9 (Bacillus)) | Change in CFU count after 24 hours ([2]; strain 14 (Vibrio)) | Inhibition of bacterial growth ([2]; strain 14 (Vibrio)) | Result (bacteriostatic / bacteriocidal / no effect) ([2]; strain 14 (Vibrio)) | Inhibition of bacterial growth ([2]; strain 18 (Microbacterium)) | Result (bacteriostatic / bacteriocidal / no effect) ([2]; strain 18 (Microbacterium)) | Inhibition of bacterial growth ([2]; strain 20) | Result (bacteriostatic / bacteriocidal / no effect) ([2]; strain 20) | Inhibition of bacterial growth ([2]; strain 27) | Result (bacteriostatic / bacteriocidal / no effect) ([2]; strain 27) | Inhibition of bacterial growth ([2]; strain 28) | Result (bacteriostatic / bacteriocidal / no effect) ([2]; strain 28) | Inhibition of bacterial growth ([2]; strain 29) | Result (bacteriostatic / bacteriocidal / no effect) ([2]; strain 29) | other results |
| --- | --- | --- | --- | --- | --- | --- | --- | --- | --- | --- | --- | --- | --- | --- | --- | --- | --- | --- | --- | --- | --- |
| CN(C)C(=O)C(CCN1CCC(O)(c2ccc(Cl)cc2)CC1)(c1ccccc1)c1ccccc1 [IMD, Loperamide hydrochloride] |  |  |  |  |  |  |  |  |  |  |  |  |  |  |  |  |  |  |  |  | Effect of IMD on settlement of cyprids: drug form, solvent, substratum ([1]; tablet vs pure compound, DMSO vs DI stock, glass vs plastic, treated and rinsed wells, hydrochloride): no difference in activity between the solutions prepared from tablet and the pure compound; also recorded: no difference between the DMSO and DI prepared stock solutions; also recorded: no difference between glass and plastic; also recorded: no significant IMD residue present on the surfaces |
| CN1CCN(CCCN2c3ccccc3Sc3ccc(Cl)cc32)CC1 [PCZ, prochlorperazine maleate] | 0 | 0 | no effect | +++ (+++ denotes little or no growth, p < 0.001) | bacteriocidal | +++ (+++ denotes little or no growth, p < 0.001) | bacteriocidal | 0 | 0 | no effect | +++ (+++ denotes little or no growth, p < 0.001) | bacteriostatic | +++ (+++ denotes little or no growth, p < 0.001) | bacteriostatic | +++ (+++ denotes little or no growth, p < 0.001) | bacteriocidal | +++ (+++ denotes little or no growth, p < 0.001) | bacteriostatic | +++ (+++ denotes little or no growth, p < 0.001) | bacteriocidal | Killing of bacteria (decrease in absorbance and CFU counts) [2]: strain 14 was not killed; Growth assay: 24-hour change in absorbance for ten strains [2]: only strain numbers 1 and 14 grew in the presence of PCZ; Inhibition of bacterial growth ([2]; strain 30): +++ (+++ denotes little or no growth, p < 0.001); Result (bacteriostatic / bacteriocidal / no effect) ([2]; strain 30): bacteriostatic |
| CNCCC(Oc1ccc(C(F)(F)F)cc1)c1ccccc1 (stereo not shown) [PZC, fluoxetine hydrochloride] | 0 | 0 | no effect | +++ (+++ denotes little or no growth, p < 0.001) | bacteriostatic | +++ (+++ denotes little or no growth, p < 0.001) | bacteriostatic | 0 | 0 | no effect | +++ (+++ denotes little or no growth, p < 0.001) | bacteriostatic | +++ (+++ denotes little or no growth, p < 0.001) | bacteriostatic | +++ (+++ denotes little or no growth, p < 0.001) | bacteriocidal | +++ (+++ denotes little or no growth, p < 0.001) | bacteriostatic | +++ (+++ denotes little or no growth, p < 0.001) | bacteriostatic | Inhibition of bacterial growth ([2]; strain 30): +++ (+++ denotes little or no growth, p < 0.001); Result (bacteriostatic / bacteriocidal / no effect) ([2]; strain 30): bacteriostatic |
| CN1CCN(CCCN2c3ccccc3Sc3ccc(C(F)(F)F)cc32)CC1 [TFZ, Trifluoperazine hydrochloride] | 0 | 0 | no effect | +++ (+++ denotes little or no growth, p < 0.001) | bacteriocidal | +++ (+++ denotes little or no growth, p < 0.001) | bacteriocidal | 0 | 0 | no effect | +++ (+++ denotes little or no growth, p < 0.001) | bacteriostatic | +++ (+++ denotes little or no growth, p < 0.001) | bacteriostatic | +++ (+++ denotes little or no growth, p < 0.001) | bacteriocidal | +++ (+++ denotes little or no growth, p < 0.001) | bacteriostatic | +++ (+++ denotes little or no growth, p < 0.001) | bacteriocidal | Killing of bacteria (decrease in absorbance and CFU counts) [2]: strain 14 was not killed; Growth assay: 24-hour change in absorbance for ten strains [2]: only strain numbers 1 and 14 grew in the presence of TFZ; Inhibition of bacterial growth ([2]; strain 30): +++ (+++ denotes little or no growth, p < 0.001); Result (bacteriostatic / bacteriocidal / no effect) ([2]; strain 30): bacteriostatic |
| Cc1nccn1CC1CCc2c(c3ccccc3n2C)C1=O (stereo not shown) [ZFN, ondansetron hydrochloride] |  |  |  |  |  |  |  |  |  |  |  |  |  |  |  |  |  |  |  |  | Effect on established bacterial biofilms [3]: no significant effect; Biofilm present after treatment (added with bacteria or after biofilm established) [3]: Except for strain 28, little or no biofilm was present after treatment |
| Cc1cc2c(s1)Nc1ccccc1N=C2N1CCN(C)CC1 [ZPX, olanzapine] |  |  |  |  |  |  |  |  |  |  |  |  |  |  |  |  |  |  |  |  | Effect on established bacterial biofilms [3]: no significant effect; Biofilm present after treatment (added with bacteria or after biofilm established) [3]: Except for strain 28, little or no biofilm was present after treatment; Effect of ZPX on cyprid settlement on different substrata ([1]; 24 well tissue culture plates, rinsed ZPX-treated wells (25 ug ml^−1, 10 minutes), glass bottles, 24 hours): no significant difference in settlement between plastic and glass; also recorded: After rinsing, the effect of ZPX in plastic was removed; also recorded: prevents the settlement of barnacle cyprids |
